Experimental data from BindingDB's records for doi:10.1016/j.bmcl.2012.02.027 (Memorial Sloan-Kettering Cancer Center, 2012).

Target: Presenilin-1 (Homo sapiens, UniProt P49768)
Test: Inhibition of gamma-secretase in cell-free human HeLa membrane assessed as amyloid beta-42 production using APP as substrate

IC50: 0.3 nM
Structure (SMILES): CC(C)C[C@H](NC(=O)[C@H](Cc1ccccc1)C[C@@H](O)[C@H](Cc1ccccc1)NC(=O)OC(C)(C)C)C(=O)N[C@@H](Cc1ccc(C(=O)c2ccccc2)cc1)C(=O)NCCCCCNC(=O)CCCC[C@@H]1SC[C@@H]2NC(=O)N[C@@H]21
